Counter-ions that a name gives are not always drawn.
Key:
[1] = system: endogenous target monocytes in human PBMC; test: PBMC ex vivo monocyte depletion flow cytometry assay (Example 200); type: cell-based; details: with anti-cotinine antibody (SEQ ID NO: 11/12), 18-24 hours, EC50 in molar, read-out: Ex Vivo Depletion Assay pEC50 (converted)
Procedure, shortened: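 Monocyte depletion is reported as pEC50, averaged or given individually across runs, and read by flow cytometry staining CD45, CD14 and CD4 with a viability dye. Compounds, diluted four-fold over 11 points from 1 mM DMSO stocks, were combined with 30 μg/mL Fc-enhanced anti-cotinine antibody and human PBMC, then incubated 18-24 h at 37° C.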

[2] = system: CCR2 expressing cells (CD11b+Ly6c+Hi) in peripheral blood; test: In vivo depletion assay, flow cytometry of peripheral blood (Example 201); design: species or system human CCR2 knock-in mice (C57 background); details: hCCR2 knock-in mice, IV 0.1 mpk compound + 10 mpk anti-cotinine antibody (SEQ ID NO: 13/14), peripheral blood at 48 hr
Experimental: Stock solution preparation. Stock solutions of compounds of Formula (I) were prepared at 20 mg/mL and 100 mg/mL in […] for PK/PD and dose tolerability studies respectively. Stock solutions were stored at […] until further usage. on the day of experiment, the stock Solution of the compound of Formula (I) was removed from storage at […] and thawed at room temperature. Anti-cotinine antibody having a heavy chain sequence of SEC ID NO: 13 and a light chain sequence of SEQ ID NO: 14 (rabbit variable region sequence with mouse IgG2a Fc domain), if required was removed from storage at −80° C. and thawed at room temperature. Antibody vials were immediately transferred into wet ice after thawing. Compounds of Formula (I) were further diluted in DMSO as per experimental requirements.
The formulation composition was Saline: DMSI: PBS.
Saline was added based on the quantity required and then stock solution of the compound of Formula (I) prepared in DMSO, followed by addition of antibody in PBS. Formulations were incubated at room temperature for 30 minutes before administration to the mouse. DMSO was used at 1 to % (v/v) in the final formulation.
After bleeding, each mouse was sacrificed by cervical dislocation. […] Flow Cytometry Analysis:
CCR2 depletion in peripheral blood was determined by flow cytometry. Briefly, peripheral blood was collected from all animals at the end of study termination and processed. Blood samples were lysed using 1×RBC Lysis buffer and the resulting cell pellet was washed twice in FACS buffer (HBSS containing 5% FBS). Cells were subjected to Fc blocking using mouse Fc block from Biolegend (Trustain, anti-mouse CD16/32, Cat: 101319) to block non-specific binding followed by surface staining for immune markers (CD45, CD3, CD11 b, Ly6C, human CCR2). Surface staining was done for 30 minutes in ice and cells were washed twice to remove unbound antibodies. Cells were stained with 7AAD to determine viability and acquired on BD FACSVerse flow cytometer. Appropriate FMO controls and single-color controls were included in the experiment for gating and compensation respectively.
Percent depletion of CD11 b+Ly6c+Hi cells and CCR2 expression for the different treatment groups was determined.

SMILES	EC50 [1]	% Depletion of CCR2 expressing cells [2]
CC(C)N(C)[C@@H]1CC[C@H](N2CC[C@H](Nc3ncnc4ccc(C(F)(F)F)cc34)C2=O)[C@H](NC(=O)C[C@H]2CC[C@H](NC(=O)CCOCCOCCOCCNC(=O)[C@H]3CC(=O)N(C)[C@@H]3c3cccnc3)CC2)C1 [Example 33, (2S,3S)-N-(2-(2-(2-(3-(((1R,4r)-4-(2-(((1R,2S,5R)-5-(Isopropyl(methyl)amino)-2-((S)-2-oxo-3-((6-(trifluoromethyl)quinazolin-4-yl)amino)pyrrolidin-1-yl)cyclohexyl)amino)-2-oxoethyl)cyclohexyl)amino)-3-oxopropoxy)ethoxy)ethoxy)ethyl)-1-methyl-5-oxo-2-(pyridin-3-yl)pyrrolidine-3-carboxamide]	0.316 nM	89%
CN1C(=O)C[C@H](C(=O)NCCC(=O)NCCOCCOCCC(=O)N[C@H]2CC[C@@H](C(=O)N[C@@H]3C[C@H](NC(C)(C)C)CC[C@@H]3N3CC[C@H](Nc4ncnc5ccc(C(F)(F)F)cc45)C3=O)CC2)[C@H]1c1cccnc1 [Example 51, (2S,3S)-N-(3-((2-(2-(3-(((1S,4s)-4-(((1R,2S,5R)-5-(tert-Butylamino)-2-((S)-2-oxo-3-((6-(trifluoromethyl)quinazolin-4-yl)amino)pyrrolidin-1-yl)cyclohexyl)carbamoyl)cyclohexyl)amino)-3-oxopropoxy)ethoxy)ethyl)amino)-3-oxopropyl)-1-methyl-5-oxo-2-(pyridin-3-yl)pyrrolidine-3-carboxamide]	0.631 nM	97.32%
CC(C)N(C)[C@@H]1CC[C@H](N2CC[C@H](Nc3ncnc4ccc(C(F)(F)F)cc34)C2=O)[C@H](NC(=O)[C@H]2CC[C@@H](NC(=O)CNC(=O)COCCOCCNC(=O)[C@H]3CC(=O)N(C)[C@@H]3c3cccnc3)CC2)C1 [Example 81, (2S,3S)-N-(2-(2-(2-((2-(((1S,4s)-4-(((1R,2S,5R)-5-(Isopropyl(methyl)amino)-2-((S)-2-oxo-3-((6-(trifluoromethyl)quinazolin-4-yl)amino)pyrrolidin-1-yl)cyclohexyl)carbamoyl)cyclohexyl)amino)-2-oxoethyl)amino)-2-oxoethoxy)ethoxy)ethyl)-1-methyl-5-oxo-2-(pyridin-3-yl)pyrrolidine-3-carboxamide]		94%
CC(C)N(C)[C@@H]1CC[C@H](N2CC[C@H](Nc3ncnc4ccc(C(F)(F)F)cc34)C2=O)[C@H](NC(=O)[C@H]2CC[C@@H](NC(=O)COCCOCCNC(=O)CCNC(=O)[C@H]3CC(=O)N(C)[C@@H]3c3cccnc3)CC2)C1 [Example 82, (2S,3S)-N-(3-((2-(2-(2-(((1S,4s)-4-(((1R,2S,5R)-5-(Isopropyl(methyl)amino)-2-((S)-2-oxo-3-((6-(trifluoromethyl)quinazolin-4-yl)amino)pyrrolidin-1-yl)cyclohexyl)carbamoyl)cyclohexyl)amino)-2-oxoethoxy)ethoxy)ethyl)amino)-3-oxopropyl)-1-methyl-5-oxo-2-(pyridin-3-yl)pyrrolidine-3-carboxamide]	0.501 nM	94%
CC(C)N(C)[C@@H]1CC[C@H](N2CC[C@H](Nc3ncnc4ccc(C(F)(F)F)cc34)C2=O)[C@H](NC(=O)CCc2ccc(C3CCN(C(=O)CCCCCNC(=O)[C@H]4CC(=O)N(C)[C@@H]4c4cccnc4)CC3)cc2)C1 [Example 86, (2S,3S)-N-(6-(4-(4-(3-(((1R,2S,5R)-5-(Isopropyl(methyl)amino)-2-((S)-2-oxo-3-((6-(trifluoromethyl)quinazolin-4-yl)amino)pyrrolidin-1-yl)cyclohexyl)amino)-3-oxopropyl)phenyl)piperidin-1-yl)-6-oxohexyl)-1-methyl-5-oxo-2-(pyridin-3-yl)pyrrolidine-3-carboxamide]	0.158 nM	25.67%
CC(C)N(C)[C@@H]1CC[C@H](N2CC[C@H](Nc3ncnc4ccc(C(F)(F)F)cc34)C2=O)[C@H](NC(=O)C2CCN(C3CCN(CCOCCOCCNC(=O)[C@H]4CC(=O)N(C)[C@@H]4c4cccnc4)CC3)CC2)C1 [Example 90, N-((1R,2S,5R)-5-(Isopropyl(methyl)amino)-2-((S)-2-oxo-3-((6-(trifluoromethyl)quinazolin-4-yl)amino)pyrrolidin-1-yl)cyclohexyl)-1′-(2-(2-(2-((2S,3S)-1-methyl-5-oxo-2-(pyridin-3-yl)pyrrolidine-3-carboxamido)ethoxy)ethoxy)ethyl)-[1,4′-bipiperidine]-4-carboxamide]	1.58 nM	87.57%
CN1C(=O)C[C@H](C(=O)NCCOCC(=O)NCCOCC(=O)N[C@H]2CC[C@@H](C(=O)N[C@@H]3C[C@H](NC(C)(C)C)CC[C@@H]3N3CC[C@H](Nc4ncnc5ccc(C(F)(F)F)cc45)C3=O)CC2)[C@H]1c1cccnc1 [Example 100, (2S,3S)-N-(2-(2-((2-(2-(((1S,4s)-4-(((1R,2S,5R)-5-(tert-Butylamino)-2-((S)-2-oxo-3-((6-(trifluoromethyl)quinazolin-4-yl)amino)pyrrolidin-1-yl)cyclohexyl)carbamoyl)cyclohexyl)amino)-2-oxoethoxy)ethyl)amino)-2-oxoethoxy)ethyl)-1-methyl-5-oxo-2-(pyridin-3-yl)pyrrolidine-3-carboxamide]	1.26 nM	74%
CC(C)N(C)[C@@H]1CC[C@H](N2CC[C@H](Nc3ncnc4ccc(C(F)(F)F)cc34)C2=O)[C@H](NC(=O)CNC(=O)[C@H]2CC[C@@H](NC(=O)COCCOCCNC(=O)[C@H]3CC(=O)N(C)[C@@H]3c3cccnc3)CC2)C1 [Example 136, (2S,3S)-N-(2-(2-(2-(((1S,4R)-4-((2-(((1R,2S,5R)-5-(Isopropyl(methyl)amino)-2-((S)-2-oxo-3-((6-(trifluoromethyl)quinazolin-4-yl)amino)pyrrolidin-1-yl)cyclohexyl)amino)-2-oxoethyl)carbamoyl)cyclohexyl)amino)-2-oxoethoxy)ethoxy)ethyl)-1-methyl-5-oxo-2-(pyridin-3-yl)pyrrolidine-3-carboxamide]	10 nM	88%
CC(C)N(C)[C@@H]1CC[C@H](N2CC[C@H](Nc3ncnc4ccc(C(F)(F)F)cc34)C2=O)[C@H](NC(=O)C2CCN(CCCCCCCCNC(=O)[C@H]3CC(=O)N(C)[C@@H]3c3cccnc3)CC2)C1 [Example 144, N-((1R,2S,5R)-5-(Isopropyl(methyl)amino)-2-((S)-2-oxo-3-((6-(trifluoromethyl)quinazolin-4-yl)amino)pyrrolidin-1-yl)cyclohexyl)-1-(8-((2S,3S)-1-methyl-5-oxo-2-(pyridin-3-yl)pyrrolidine-3-carboxamido)octyl)piperidine-4-carboxamide, 3Formic acid salt]	0.501 nM	85.67%
CC(C)N(C)[C@@H]1CC[C@H](N2CC[C@H](Nc3ncnc4ccc(C(F)(F)F)cc34)C2=O)[C@H](NC(=O)[C@H]2CC[C@H](N3CCN(CCCCCCCCNC(=O)[C@H]4CC(=O)N(C)[C@@H]4c4cccnc4)CC3)CC2)C1 [Example 146, (2S,3S)-N-(8-(4-((1R,4r)-4-(((1R,2S,5R)-5-(Isopropyl(methyl)amino)-2-((S)-2-oxo-3-((6-(trifluoromethyl)quinazolin-4-yl)amino)pyrrolidin-1-yl)cyclohexyl)carbamoyl)cyclohexyl)piperazin-1-yl)octyl)-1-methyl-5-oxo-2-(pyridin-3-yl)pyrrolidine-3-carboxamide]	0.316 nM	83.08%
CC(C)N(C)[C@@H]1CC[C@H](N2CC[C@H](Nc3ncnc4ccc(C(F)(F)F)cc34)C2=O)[C@H](NC(=O)C2CCN(CCOCCOCCOCCOCCNC(=O)[C@H]3CC(=O)N(C)[C@@H]3c3cccnc3)CC2)C1 [Example 147]	0.631 nM	77%
CC(C)N(C)[C@@H]1CC[C@H](N2CC[C@H](Nc3ncnc4ccc(C(F)(F)F)cc34)C2=O)[C@H](NC(=O)[C@H]2CC[C@@H](C(=O)NCCCN3CCN(CCCNC(=O)[C@H]4CC(=O)N(C)[C@@H]4c4cccnc4)CC3)CC2)C1 [Example 150, (1 s,4S)-N^1-((1R,2S,5R)-5-(Isopropyl(methyl)amino)-2-((S)-2-oxo-3-((6-(trifluoromethyl)quinazolin-4-yl)amino)pyrrolidin-1-yl)cyclohexyl)-N^4-(3-(4-(3-((2S,3S)-1-methyl-5-oxo-2-(pyridin-3-yl)pyrrolidine-3-carboxamido)propyl)piperazin-1-yl)propyl)cyclohexane-1,4-dicarboxamide]	1 nM	85.52%
